Data reported in ChEMBL document CHEMBL3301361, “Experimental in vitro DMPK and physicochemical data on a set of publicly disclosed compounds”.
≈ marks a conversion by molar mass, not a printed value.

Experiments:
physchem [1] = settings: octan-1-ol/water, pH 7.4, LogD7.4
physchem [2] = settings: pH 7.4 buffer

| Structure (SMILES) | logD (physchem [1]) | solubility thermodynamic (physchem [2]) |
| --- | --- | --- |
| CCn1c(=O)c2[nH]c(-c3ccccc3)nc2n(CC)c1=O | 3.3 | 2.1 µM (≈ 0.597 µg/mL) |
| Cc1ncc(-c2ccnc(Nc3ccccc3)n2)n1C(C)C | 3.58 | 35.5 µM (≈ 10.4 µg/mL) |
| O=C(NCCSCc1ccccc1)c1ccccc1 | 3.3 | 72.4 µM (≈ 19.6 µg/mL) |
| COCC(=O)N1CCC(n2cc(-c3cnc(N)c(-c4nc5ccccc5o4)c3)cn2)CC1 | 3.4 | 1.9 µM (≈ 0.822 µg/mL) |
| Nc1ncc(-c2cnn(C3CCN(C(=O)CO)CC3)c2)cc1-c1nc2ccccc2o1 | 3.2 | 2 µM (≈ 0.837 µg/mL) |
| CS(=O)(=O)c1cccc(Nc2nccc(Nc3cccc4ccoc34)n2)c1 | 3.52 | 5.4 µM (≈ 2.05 µg/mL) |
| CN(c1ccnc(Nc2cccc(S(C)(=O)=O)c2)n1)c1cccc2[nH]ncc12 | 3.21 | 13.5 µM (≈ 5.33 µg/mL) |
| CSCc1cc(N2CCOCC2)nc(-c2ccccc2)n1 | 3.26 | 55 µM (≈ 16.6 µg/mL) |
| Cc1nc(CSc2ccc(Cl)cc2)cc(N2CCOCC2)n1 | 3.38 | 107 µM (≈ 36 µg/mL) |
| FC(F)(F)c1nnc2ccc(N3CCCCCC3)nn12 | 3.29 | 132 µM (≈ 37.6 µg/mL) |
| Oc1nc(-c2ccccc2)c(-c2ccccc2)o1 | 3.42 | 107 µM (≈ 25.4 µg/mL) |
| CC(Nc1ncnc2ccccc12)c1ccccc1 (stereo not drawn) | 3.4 | 123 µM (≈ 30.7 µg/mL) |
| COc1ccc(-c2nc3n(c2Br)CCC3)cc1 | 3.3 | 25.1 µM (≈ 7.36 µg/mL) |
| COc1ccc(-c2csc(N(CCCN3CCOCC3)C(=O)c3ccco3)n2)cc1 | 3.34 | 1.1 µM (≈ 0.47 µg/mL) |
| Nc1nc(-c2ccc(Cl)cc2)cs1 | 3.31 | 83.2 µM (≈ 17.5 µg/mL) |
| O=C(CN1CCOCC1)Nc1ccc(-c2cccc3c(=O)cc(N4CCOCC4)oc23)cc1OCC1CC1 | 3.3 | 1.5 µM (≈ 0.779 µg/mL) |
| O=C(c1ccc(F)cc1)C1CCN(C(=S)Nc2ccc(F)cc2)CC1 | 3.4 | 2.5 µM (≈ 0.901 µg/mL) |
| O=C(Cn1cnc2ccccc21)c1ccc(Br)cc1 | 3.22 | 129 µM (≈ 40.6 µg/mL) |
| COCCOc1cc(Nc2nccc(N(C)c3cc(CO)ccc3C)n2)cc(N2CCOCC2)c1 | 3.3 | 126 µM (≈ 60.4 µg/mL) |
| Cc1ccc(CO)cc1N(C)c1ccnc(Nc2cc(N3CCOCC3)nc(N3CCOCC3)c2)n1 | 3.44 | 39.8 µM (≈ 19.6 µg/mL) |

| Structure (SMILES) | logD (physchem [1]) | solubility thermodynamic (physchem [2]) |
| --- | --- | --- |
| COc1cc(C(=O)N2CCOCC2)ccc1Nc1ncc(Cl)c(-c2cnc3ccccn23)n1 | 3.4 | 1.6 µM (≈ 0.744 µg/mL) |
| COc1cc(N2CCN(CCO)CC2)ccc1Nc1ncc(Cl)c(-c2cnc3ccccn23)n1 | 3.2 | 66.1 µM (≈ 31.7 µg/mL) |
| COc1cc(N2CCN(C(C)=O)CC2)ccc1Nc1ncc(OC)c(-c2cnc3ccccn23)n1 | 3.2 | 1.3 µM (≈ 0.616 µg/mL) |
| COc1cc(N2CCN(C(C)=O)CC2)ccc1Nc1ncc(Cl)c(-c2cnc3c(N)cccn23)n1 | 3.4 | 0.9 µM (≈ 0.444 µg/mL) |
| COc1cc(N2CCN(C(C)=O)CC2)ccc1Nc1ncc(Cl)c(-c2cnc3cc(N4CCCC4)ccn23)n1 | 3.5 | 1.4 µM (≈ 0.766 µg/mL) |
| O=C(NCC(=O)N(CCO)c1ccccc1)c1cc2cc(Cl)ccc2[nH]1 | 3.37 | 1.8 µM (≈ 0.669 µg/mL) |
| C=CCN(C(=O)NCc1ccc(OC)cc1)C1CCN(CCC(c2ccccc2)c2ccccc2)CC1 | 3.6 | 53.7 µM (≈ 26.7 µg/mL) |
| CN(C(=O)NCc1ccccc1)C1CCN(CCC(c2ccccc2)c2ccccc2)CC1 | 3.4 | 25.7 µM (≈ 11.3 µg/mL) |
| CCOC(=O)c1ccc(OCCC2CN(c3ccc(C)nn3)C2)cc1 | 3.22 | 347 µM (≈ 118 µg/mL) |
| CCOC(=O)c1ccc(OCCC2(C#N)CCN(c3ccc(C)nn3)CC2)cc1 | 3.54 | 58.9 µM (≈ 23.2 µg/mL) |
| COc1cc2ncnc(Nc3cc(NC(=O)c4cccc(N5CCOCC5)c4)ccc3C)c2cc1OC | 3.6 | 14.5 µM (≈ 7.24 µg/mL) |
| COc1cc2ncnc(Nc3cc(NC(=O)c4ccnc(N5CCOCC5)c4)ccc3C)c2cc1OCCN1CCCCC1 | 3.35 | 813 µM (≈ 486 µg/mL) |
| COc1ccc(-c2c(-c3ccc(O)cc3O)n[nH]c2C)cc1 | 3.37 | 209 µM (≈ 61.9 µg/mL) |
| CCn1cc(NC(=O)Cc2ccc(Oc3ccnc4cc(OC)c(OC)cc34)cc2OC)cn1 | 3.42 | 22.9 µM (≈ 10.6 µg/mL) |
| Cc1nn(C2CCN(C)CC2)cc1-c1cnc(N)c(-c2nc3ccccc3o2)c1 | 3.4 | 21.4 µM (≈ 8.31 µg/mL) |
| CCOc1cc2nccc(Oc3cnc(CC(=O)Nc4n[nH]c(CC)c4C)c(OC)c3)c2cc1OC | 3.29 | 2.2 µM (≈ 1.08 µg/mL) |
| Cc1cccc(Nc2nnc(C(=O)Nc3ccc(N4CCOCC4)nc3)o2)c1 | 3.42 | 4.8 µM (≈ 1.83 µg/mL) |
| O=C(Nc1ccc(Cl)c(Cl)c1)N1CCN(C[C@@H]2CCCN(C3CC3)C2)CC1 | 3.57 | 288 µM (≈ 119 µg/mL) |
| Cc1ccc(NC(=O)N2CCN(C[C@@H]3CCCN(C4CC4)C3)CC2)cc1Cl | 3.37 | 575 µM (≈ 225 µg/mL) |
